In patent US12371428B2 (Exelixis, Inc., priority 2019, dated 2025):
pIC50: −log10 of the molar value.

Columns and labels:
[1] = molecular target: Human KDR (residues 790-1356) (Homo sapiens (Human), UniProt P35968); experiment: Human KDR kinase assay, HTRF KinEase (Example B-2); type: biochemical; conditions: protocol of Example B-2 (other compounds)
Procedure, shortened: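 Human KDR residues 790-1356 (0.1 ng/well) in buffer with 5 mM MgCl2, 1 mM MnCl2, 1 mM DTT, biotinylated peptide substrate, ATP at Km (4.0 μM), 3% DMSO, 10 compound concentrations; 40 min, room temperature. EDTA stop, streptavidin-XL665/Eu-TK antibody HTRF read 665/620 nm; 4-parameter IC50.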

[2] = molecular target: Met (phospho-Met, HGF-stimulated PC-3 prostate cancer cells) (Homo sapiens (Human), UniProt P08581); experiment: Met autophosphorylation ELISA in PC-3 cells (Example F); type: cell-based; conditions: cellular activity; Met autophosphorylation ELISA in PC-3 cells; read-out: c-Met IC50
Chain of Met (phospho-Met, HGF-stimulated PC-3 prostate cancer cells) (P08581 25-1390): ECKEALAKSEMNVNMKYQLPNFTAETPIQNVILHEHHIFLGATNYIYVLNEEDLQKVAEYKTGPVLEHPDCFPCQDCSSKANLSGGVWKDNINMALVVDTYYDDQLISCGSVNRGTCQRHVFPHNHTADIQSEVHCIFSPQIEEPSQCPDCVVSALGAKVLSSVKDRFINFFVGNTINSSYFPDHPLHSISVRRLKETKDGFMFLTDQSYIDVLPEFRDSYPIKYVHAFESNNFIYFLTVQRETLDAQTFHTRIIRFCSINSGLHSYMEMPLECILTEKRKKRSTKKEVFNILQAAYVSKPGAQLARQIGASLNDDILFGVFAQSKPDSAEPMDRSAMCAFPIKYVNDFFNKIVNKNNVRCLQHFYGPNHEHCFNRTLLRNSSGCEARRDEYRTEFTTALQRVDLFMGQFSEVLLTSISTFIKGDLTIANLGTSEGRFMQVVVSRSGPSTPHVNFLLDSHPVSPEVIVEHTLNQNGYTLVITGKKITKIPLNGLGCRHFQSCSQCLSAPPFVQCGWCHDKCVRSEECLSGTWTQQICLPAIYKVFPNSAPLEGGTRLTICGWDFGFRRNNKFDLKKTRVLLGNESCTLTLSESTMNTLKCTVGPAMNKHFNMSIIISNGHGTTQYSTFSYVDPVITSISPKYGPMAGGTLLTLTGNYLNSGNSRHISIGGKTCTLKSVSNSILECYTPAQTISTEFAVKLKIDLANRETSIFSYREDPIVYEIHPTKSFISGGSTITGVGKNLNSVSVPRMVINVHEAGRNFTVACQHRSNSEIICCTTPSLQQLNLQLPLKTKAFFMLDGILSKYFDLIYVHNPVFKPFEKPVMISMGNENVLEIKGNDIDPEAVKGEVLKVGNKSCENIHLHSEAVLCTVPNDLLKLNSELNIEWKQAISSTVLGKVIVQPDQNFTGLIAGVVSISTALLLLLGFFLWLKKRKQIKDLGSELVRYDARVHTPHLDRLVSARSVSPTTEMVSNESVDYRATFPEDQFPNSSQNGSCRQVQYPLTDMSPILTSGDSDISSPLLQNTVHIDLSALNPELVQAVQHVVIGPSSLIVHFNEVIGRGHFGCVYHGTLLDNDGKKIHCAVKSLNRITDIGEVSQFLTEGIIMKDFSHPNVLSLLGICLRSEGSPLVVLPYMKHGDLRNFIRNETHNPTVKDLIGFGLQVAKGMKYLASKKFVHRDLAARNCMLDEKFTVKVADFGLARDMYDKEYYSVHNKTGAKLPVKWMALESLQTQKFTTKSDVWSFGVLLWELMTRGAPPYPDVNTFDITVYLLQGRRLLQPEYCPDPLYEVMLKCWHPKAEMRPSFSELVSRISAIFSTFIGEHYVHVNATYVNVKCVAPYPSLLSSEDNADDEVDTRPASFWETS
Procedure, shortened: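 Serum-starved (3 h) PC-3 cells were treated 1 h with compounds (8-point curve, 0.3% DMSO), then stimulated with 100 ng/mL human HGF for 10 min. Lysate phospho-Met (panTyr) was measured by sandwich ELISA, normalised to DMSO and reference-inhibitor controls. IC50 came from 4-parameter logistic fit.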

[3] = molecular target: KDR (phospho-KDR, VEGF165-stimulated HUVEC cells) (Homo sapiens (Human), UniProt P35968); experiment: KDR autophosphorylation ELISA in HUVEC cells (Example G); type: cell-based; conditions: cellular activity; KDR autophosphorylation ELISA in HUVEC cells
Chain of KDR (phospho-KDR, VEGF165-stimulated HUVEC cells) (P35968 20-1356): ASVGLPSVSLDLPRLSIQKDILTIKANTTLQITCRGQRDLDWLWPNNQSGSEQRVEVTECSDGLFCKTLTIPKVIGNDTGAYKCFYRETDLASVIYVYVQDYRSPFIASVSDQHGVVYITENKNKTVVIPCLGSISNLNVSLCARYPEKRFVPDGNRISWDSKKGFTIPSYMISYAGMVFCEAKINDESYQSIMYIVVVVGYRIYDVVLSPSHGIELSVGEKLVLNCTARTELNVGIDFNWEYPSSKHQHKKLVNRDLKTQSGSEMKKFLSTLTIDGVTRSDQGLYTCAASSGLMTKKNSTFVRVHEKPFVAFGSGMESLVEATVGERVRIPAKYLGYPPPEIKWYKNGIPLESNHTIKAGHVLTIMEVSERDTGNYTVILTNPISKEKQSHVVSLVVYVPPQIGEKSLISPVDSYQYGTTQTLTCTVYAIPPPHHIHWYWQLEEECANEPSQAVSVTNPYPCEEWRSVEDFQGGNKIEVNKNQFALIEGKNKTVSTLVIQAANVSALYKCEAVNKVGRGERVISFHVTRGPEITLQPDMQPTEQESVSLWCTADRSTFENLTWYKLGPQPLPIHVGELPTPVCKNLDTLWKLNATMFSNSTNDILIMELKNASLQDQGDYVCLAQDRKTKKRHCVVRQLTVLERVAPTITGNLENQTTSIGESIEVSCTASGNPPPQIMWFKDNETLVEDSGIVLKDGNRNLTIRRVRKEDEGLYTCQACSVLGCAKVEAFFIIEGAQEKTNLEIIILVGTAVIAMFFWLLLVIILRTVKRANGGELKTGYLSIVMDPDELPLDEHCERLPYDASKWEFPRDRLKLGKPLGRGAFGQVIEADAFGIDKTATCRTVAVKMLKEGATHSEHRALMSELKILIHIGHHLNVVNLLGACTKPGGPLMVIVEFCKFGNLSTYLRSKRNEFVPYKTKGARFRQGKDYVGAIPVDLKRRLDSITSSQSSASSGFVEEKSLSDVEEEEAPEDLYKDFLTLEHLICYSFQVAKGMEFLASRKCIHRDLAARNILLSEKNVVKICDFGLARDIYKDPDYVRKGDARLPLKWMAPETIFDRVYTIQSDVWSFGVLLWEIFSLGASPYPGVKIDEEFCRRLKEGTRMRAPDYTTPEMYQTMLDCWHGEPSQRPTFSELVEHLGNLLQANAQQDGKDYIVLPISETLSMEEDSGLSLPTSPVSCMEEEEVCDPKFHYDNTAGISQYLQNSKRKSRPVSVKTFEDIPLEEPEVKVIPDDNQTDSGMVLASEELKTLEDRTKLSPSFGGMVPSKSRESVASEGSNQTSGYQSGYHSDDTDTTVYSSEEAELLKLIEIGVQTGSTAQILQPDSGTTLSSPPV
Procedure, shortened: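 Cells seeded, grown 24 h at 37 °C, starved 24 h serum-free; cpd 8-pt curve, 0.3% DMSO, 1 h; VEGF165 100 ng/mL, 5 min; cold PBS wash, lysis with orthovanadate and protease/phosphatase inhibitors; pKDR ELISA; IC50 by 4-parameter logistic regression.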

Chain of Human KDR (residues 790-1356) (P35968 790-1356): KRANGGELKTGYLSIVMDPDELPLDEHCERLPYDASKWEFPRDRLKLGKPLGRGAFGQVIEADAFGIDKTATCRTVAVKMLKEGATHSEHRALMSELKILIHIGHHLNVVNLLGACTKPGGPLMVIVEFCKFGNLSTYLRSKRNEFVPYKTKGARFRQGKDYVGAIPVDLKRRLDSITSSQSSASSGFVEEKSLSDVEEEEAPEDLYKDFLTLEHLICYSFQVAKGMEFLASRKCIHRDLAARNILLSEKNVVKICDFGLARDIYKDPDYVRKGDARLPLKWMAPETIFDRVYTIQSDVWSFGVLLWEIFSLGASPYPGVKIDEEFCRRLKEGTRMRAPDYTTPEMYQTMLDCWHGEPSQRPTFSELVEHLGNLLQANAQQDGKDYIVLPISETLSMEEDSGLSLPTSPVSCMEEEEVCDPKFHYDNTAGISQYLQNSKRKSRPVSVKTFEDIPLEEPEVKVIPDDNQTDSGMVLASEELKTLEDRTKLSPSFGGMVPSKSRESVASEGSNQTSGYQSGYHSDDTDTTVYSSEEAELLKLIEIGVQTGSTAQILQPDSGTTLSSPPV

Row | Compound | pIC50 [1] | pIC50 [2] | pIC50 [3]
1 | Cc1cc2nccc(Oc3ccc(NC(=O)c4cnc(C)c(-c5ccc(F)cc5)c4O)cc3F)c2nc1F [Compound 426, N-[3-fluoro-4-[(6-fluoro-7-methyl-1,5-naphthyridin-4-yl)oxy]phenyl]-5-(4-fluorophenyl)-4-hydroxy-6-methylpyridine-3-carboxamide] | 6.52 to 7.00 | > 7.00 | > 7.00
2 | COc1cc2nccc(Oc3ccc(NC(=O)c4cn(C)c(C#N)c(-c5ccc(F)cc5)c4=O)cc3F)c2nc1OC [Compound 77, 6-Cyano-N-[4-[(6,7-dimethoxy-1,5-naphthyridin-4-yl)oxy]-3-fluorophenyl]-5-(4-fluorophenyl)-1-methyl-4-oxopyridine-3-carboxamide] | < 6.52 | > 7.00 | < 6.52
3 | COc1cc2nccc(Oc3ccc(NC(=O)c4cn(-c5cn[nH]c5)cc(-c5ccc(F)cc5)c4=O)cc3F)c2nc1OC [Compound 62, N-[4-[(6,7-Dimethoxy-1,5-naphthyridin-4-yl)oxy]-3-fluorophenyl]-5-(4-fluorophenyl)-4-oxo-1-(1H-pyrazol-4-yl)pyridine-3-carboxamide] | < 6.52 | > 7.00 | < 6.52
4 | COc1ccc2nccc(Oc3ccc(NC(=O)c4cn(C5CC5)c(C)c(-c5ccc(F)cc5)c4=O)cc3F)c2n1 [Compound 435, 1-cyclopropyl-N-[3-fluoro-4-[(6-methoxy-1,5-naphthyridin-4-yl)oxy]phenyl]-5-(4-fluorophenyl)-6-methyl-4-oxopyridine-3-carboxamide] | < 6.52 | > 7.00 | < 6.52
5 | CCc1cc2nccc(Oc3ccc(NC(=O)c4cnc(C)c(-c5ccc(F)cc5)c4O)cc3F)c2nc1OC [Compound 420, N-[4-[(7-ethyl-6-methoxy-1,5-naphthyridin-4-yl)oxy]-3-fluorophenyl]-5-(4-fluorophenyl)-4-hydroxy-6-methylpyridine-3-carboxamide] | 6.52 to 7.00 | > 7.00 | > 7.00
6 | COc1cc2nccc(Oc3ccc(NC(=O)c4cn(C5CC5)c(C)c(-c5ccc(F)cc5C)c4=O)cc3)c2nc1OC [Compound 440, 1-cyclopropyl-N-[4-[(6,7-dimethoxy-1,5-naphthyridin-4-yl)oxy]phenyl]-5-(4-fluoro-2-methylphenyl)-6-methyl-4-oxopyridine-3-carboxamide] | < 6.52 | > 7.00 | < 6.52
7 | COc1cc2nccc(Oc3ccc(NC(=O)c4cnc(C)c(-c5ccc(F)cc5)c4O)cc3F)c2nc1OC(C)C [Compound 415, N-[3-fluoro-4-[(7-methoxy-6-propan-2-yloxy-1,5-naphthyridin-4-yl)oxy]phenyl]-5-(4-fluorophenyl)-4-hydroxy-6-methylpyridine-3-carboxamide] | 6.52 to 7.00 | > 7.00 | > 7.00
8 | C=Cc1cc2nccc(Oc3ccc(NC(=O)c4cnc(C)c(-c5ccc(F)cc5C)c4O)cc3F)c2nc1OC [Compound 423, N-[4-[(7-ethenyl-6-methoxy-1,5-naphthyridin-4-yl)oxy]-3-fluorophenyl]-5-(4-fluoro-2-methylphenyl)-4-hydroxy-6-methylpyridine-3-carboxamide] | < 6.52 | > 7.00 | > 7.00
9 | COc1cc2nccc(Oc3ccc(NC(=O)c4cn(-c5ccn(C)n5)cc(-c5ccc(F)cc5)c4=O)cc3F)c2nc1OC [Compound 53, N-[4-[(6,7-Dimethoxy-1,5-naphthyridin-4-yl)oxy]-3-fluorophenyl]-5-(4-fluorophenyl)-1-(1-methylpyrazol-3-yl)-4-oxopyridine-3-carboxamide] | < 6.52 | > 7.00 | < 6.52
10 | COc1cc2nccc(Oc3ccc(NC(=O)c4cn(-c5cc[nH]n5)cc(-c5ccc(F)cc5)c4=O)cc3F)c2nc1OC [Compound 61, N-[4-[(6,7-Dimethoxy-1,5-naphthyridin-4-yl)oxy]-3-fluorophenyl]-5-(4-fluorophenyl)-4-oxo-1-(1H-pyrazol-3-yl)pyridine-3-carboxamide] | < 6.52 | > 7.00 | < 6.52
11 | COc1cc2nccc(Oc3ccc(NC(=O)c4c(C)n(C)cc(-c5ccc(F)cc5)c4=O)cc3F)c2nc1OC [Compound 81, N-[4-[(6,7-Dimethoxy-1,5-naphthyridin-4-yl)oxy]-3-fluorophenyl]-5-(4-fluorophenyl)-1,2-dimethyl-4-oxopyridine-3-carboxamide] | > 7.00 | > 7.00 | > 7.00
12 | COc1cc2nccc(Oc3ccc(NC(=O)c4cn(C5CC5)c(C)c(-c5ccc(F)cc5)c4=O)cc3)c2nc1OC [Compound 434, 1-cyclopropyl-N-[4-[(6,7-dimethoxy-1,5-naphthyridin-4-yl)oxy]phenyl]-5-(4-fluorophenyl)-6-methyl-4-oxopyridine-3-carboxamide] | < 6.52 | > 7.00 | < 6.52
13 | COc1cc2nccc(Oc3ccc(NC(=O)c4cnc(C)c(-c5ccc(F)cc5C)c4O)cc3F)c2nc1OCCCN1CCOCC1 [Compound 425, N-[3-fluoro-4-[[7-methoxy-6-(3-morpholin-4-ylpropoxy)-1,5-naphthyridin-4-yl]oxy]phenyl]-5-(4-fluoro-2-methylphenyl)-4-hydroxy-6-methylpyridine-3-carboxamide] | > 7.00 | > 7.00 | > 7.00
14 | Cc1cc(F)ccc1-c1c(C)nnc(C(=O)Nc2ccc(Oc3ccnc4cc(C)c(F)nc34)c(F)c2)c1O [Compound 430, N-[3-fluoro-4-[(6-fluoro-7-methyl-1,5-naphthyridin-4-yl)oxy]phenyl]-5-(4-fluoro-2-methylphenyl)-4-hydroxy-6-methylpyridazine-3-carboxamide] | < 6.52 | > 7.00 | < 6.52

Next, values leading:

Row | pIC50 [1] | pIC50 [2] | pIC50 [3] | Compound
15 | > 7.00 | > 7.00 | > 7.00 | COc1cnc2c(Oc3ccc(NC(=O)c4ccc(C)n(-c5ccc(F)cc5)c4=O)cc3F)ccnc2c1 [Compound 83, N-[3-Fluoro-4-[(7-methoxy-1,5-naphthyridin-4-yl)oxy]phenyl]-1-(4-fluorophenyl)-6-methyl-2-oxopyridine-3-carboxamide]
16 | > 7.00 | > 7.00 | > 7.00 | CNc1c(-c2ccc(F)cc2)c(=O)c(C(=O)Nc2ccc(Oc3ccnc4cc(OC)c(OC)nc34)c(F)c2)cn1C [Compound 76, N-[4-[(6,7-Dimethoxy-1,5-naphthyridin-4-yl)oxy]-3-fluorophenyl]-5-(4-fluorophenyl)-1-methyl-6-(methylamino)-4-oxopyridine-3-carboxamide]
17 | > 7.00 | > 7.00 | > 7.00 | COc1cc2nccc(Oc3ccc(NC(=O)c4cnc(C)c(-c5ccc(F)cc5)c4O)cc3F)c2nc1OCCCN1CCOCC1 [Compound 424, N-[3-fluoro-4-[[7-methoxy-6-(3-morpholin-4-ylpropoxy)-1,5-naphthyridin-4-yl]oxy]phenyl]-5-(4-fluorophenyl)-4-hydroxy-6-methylpyridine-3-carboxamide]
18 | > 7.00 | > 7.00 | > 7.00 | COc1cc2nccc(Oc3ccc(NC(=O)c4ncc(C)n(-c5ccc(F)cc5)c4=O)cc3F)c2nc1OC [Compound 93, N-[4-[(6,7-Dimethoxy-1,5-naphthyridin-4-yl)oxy]-3-fluorophenyl]-4-(4-fluorophenyl)-5-methyl-3-oxopyrazine-2-carboxamide]
19 | > 7.00 | > 7.00 | > 7.00 | COc1cnc2c(Oc3ccc(NC(=O)c4cnc(C)c(-c5ccc(F)cc5)c4O)cc3F)ccnc2c1 [Compound 64, N-[3-Fluoro-4-[(7-methoxy-1,5-naphthyridin-4-yl)oxy]phenyl]-5-(4-fluorophenyl)-4-hydroxy-6-methylpyridine-3-carboxamide]
20 | > 7.00 | > 7.00 | > 7.00 | COc1cnc2c(Oc3ccc(NC(=O)c4c(C)nc(C)c(-c5ccc(F)cc5)c4O)cc3F)ccnc2c1 [Compound 66, N-[3-Fluoro-4-[(7-methoxy-1,5-naphthyridin-4-yl)oxy]phenyl]-5-(4-fluorophenyl)-4-hydroxy-2,6-dimethylpyridine-3-carboxamide]
21 | > 7.00 | > 7.00 | > 7.00 | COCCOc1nc2c(Oc3ccc(NC(=O)c4cnc(C)c(-c5ccc(F)cc5)c4O)cc3F)ccnc2cc1OC [Compound 68, N-[3-Fluoro-4-[[7-methoxy-6-(2-methoxyethoxy)-1,5-naphthyridin-4-yl]oxy]phenyl]-5-(4-fluorophenyl)-4-hydroxy-6-methylpyridine-3-carboxamide]
22 | > 7.00 | > 7.00 | > 7.00 | COc1cc2nccc(Oc3ccc(NC(=O)c4c5n(cc(-c6ccc(F)cc6)c4=O)CCC5)cc3F)c2cc1OC [Compound 409, N-[4-(6,7-dimethoxyquinolin-4-yl)oxy-3-fluorophenyl]-6-(4-fluorophenyl)-7-oxo-2,3-dihydro-1H-indolizine-8-carboxamide]
